According to patent publication US20090170762A1, “Treatment of Diabetes Related Obesity” (UUTech Limited, priority 2005, published 2009):
“Also recorded” adds a separate entry of the source. Ends that are not written are not given here.

Columns and labels:
[1] = test system: adult ob/ob mice; conditions: daily 11 days (Gault 2005); cited from earlier work
[2] = test system: ob/ob mice; assay: Daily (Pro3)GIP for 60 days in young ob/ob mice; type: in vivo, mouse
Protocol: Young obese diabetic (ob/ob) mice derived from the colony maintained at Aston University, UK (Bailey, C. J. et al., 1982, Int. J. Obes. 6:11-21) were used at 5-7 weeks of age. Normal lean control mice from the same colony were used in comparative experiments (See Example 6, below). Animals were age-matched, divided into groups and housed individually in an air-conditioned room at 22±2° C. with a 12 hours light:12 hours dark cycle (08:00-20:00 hours). Drinking water and a standard rodent maintenance diet (Trouw Nutrition, Cheshire, UK) were freely available. In a separate experiment, Swiss Tylers Original (TO) mice purchased from Harlan Ltd. (Bicester, UK) were used at 5-7 weeks of age. Animals were housed as for ob/ob mice and given drinking water ad libitum. Normal TO mice were allowed free access to fed high fat diet (45% fat, 20% protein, 35% carbohydrate, 26.15 MJ/kg), high carbohydrate diet (10% fat, 20% protein, 70% carbohydrate, 18.80 MJ/kg) (Special Diets Service, Witham, Essex, UK), cafeteria diet (corresponding to approximately 33% fat, 19% protein, 48% carbohydrate, 16.39 MJ/kg) or normal rodent maintenance diet (10% fat, 30% protein, 60% carbohydrate; 14.2 MJ/kg, Trouw Nutrition, Cheshire, UK). The cafeteria diet comprised 6 daily rotations of 2 palatable food items per day (2 from: tuna, peanut butter, crisps, chocolate biscuits, madera cake, chocolate, luncheon meat, sausages, corned beef, cheese, marzipan). All animal experiments were carried out in accordance with the UK Animals (Scientific Procedures) Act 1986.
Food intake and body weight were recorded daily while plasma glucose and insulin concentrations were monitored at intervals of 3-6 days. Whole blood for the measurement of glycated hemoglobin was taken on day 60. In addition, plasma samples for measurement of cholesterol, circulating triglycerides, HDL-cholesterol (HDL-C) and LDL-cholesterol (LDL-C) were taken on day 60. […] Mice fasted for 18 hours were used to examine the metabolic response to 15 minutes feeding on day 60. In a separate series, pancreatic tissues were excised at the end of the 60-day treatment period and processed for immunohistochemistry or measurement of insulin following extraction with 5 ml/g of ice-cold acid ethanol (750 ml ethanol, 235 ml water, 15 ml concentrated HCl). Blood samples taken from the cut tip of the tail vein of conscious mice at the times indicated in the Figures were immediately centrifuged using a Beckman microcentrifuge (Beckman instruments, UK) for 30 seconds at 13,000×g. The resulting plasma was then aliquoted into fresh Eppendorf tubes and stored at −20° C. prior to glucose and insulin determinations. Normal control mice from the same genetic background were used for comparative purposes. […] Body weights were recorded daily and blood for determination of glycated hemoglobin was collected at end of study period.
Plasma glucose was assayed by an automated glucose oxidase procedure (Stevens, J. F., 1971, Clin. Chem. Acta 32:199-201) using a Beckman Glucose Analyzer II (Beckman Instruments, Galway, Ireland). Plasma and pancreatic insulin were assayed by a modified dextran-coated charcoal radioimmunoassay (Flatt, P. R., Bailey, C. J., 1981, Diabetologia 20:573-577). Plasma triglyceride and cholesterol levels were measured using a Hitachi Automatic Analyser 912 (Boehringer Mannheim, Germany). Glycated hemoglobin was determined using a commercially available kit purchased from Chirus Ltd. (Watford, UK).
Results are expressed as mean±SEM. Data were compared using ANOVA, followed by a Student-Newman-Keuls post hoc test. Area under the curve (AUC) analyzes were calculated using the trapezoidal rule with baseline subtraction. P<0.05 was considered to be statistically significant.

[3] = test system: BRIN-BD11 cells; assay: Insulin secretion from BRIN-BD11 cells; type: cell-based
Protocol: Tissue Culture. Chinese Hamster Lung (CHL) fibroblast cells stably transfected with the human GIP-R were cultured in DMEM tissue culture medium containing 10%. (v/v) fetal bovine serum, 1% (v/v) antibiotics (100 U/ml penicillin, 0.1 mg/ml streptomycin) (all from Gibco, Paisley, Strathclyde, Scotland). BRIN-BD11 cells were cultured in RPMI-1640 tissue culture medium containing 10% (v/v) fetal bovine serum, 1% (v/v) antibiotics (100 U/ml penicillin, 0.1 mg/ml streptomycin) and 11.1 mm glucose. The origin and secretory characteristics of these cells have been described in detail previously (McClenaghan, N. H. et al., 1996, Diabetes 45:1132-1140). The cells were maintained in sterile tissue culture flasks (Corning Glass Works, Sunderland, UK) at 37° C. in an atmosphere of 5% CO2 and 95% air using a LEEC incubator (Laboratory Technical Engineering, Nottingham, UK).
Methods. Insulin release from BRIN-BD11 cells was determined by use of cell monolayers as described previously (Gault, V. A. et al. 2002, Biochem. J. 367:913-920). In brief, BRIN-BD11 cells were seeded into 24-well plates (Nunc, Roskilde, Denmark) at a density of 1.5×10^5 cells per well and allowed to attach overnight in RPMI-1640 culture medium at 37° C. Acute tests for insulin secretion were preceded by 40 minutes pre-incubation at 37° C. in 1.0 ml Krebs Ringer Bicarbonate Buffer (KRBB, 115 mm NaCl, 4.7 mm KCl, 1.28 mm CaCl2, 1.2 mM MgSO4, 1.2 mm KH2PO4, 25 mM HEPES and 10 mm NaHCO3; pH 7.4 with NaOH) supplemented with 0.1% (w/v) BSA and 1.1 mM glucose. […] After 20 minutes incubation, the buffer was removed and used for measurement of insulin by radioimmunoassay (Flatt, P. R. and Bailey, C. J., 1981, Diabetologia 5:573-577).

YAPGTFISDYSIAMDKIHQQDFVNWLLAQKGKKNDWKHNITQ [(Pro^3)GIP]
features of type 2 diabetes [1]: improved many of the characteristic features of type 2 diabetes | body weight gain ([2]; 5-7 weeks old ob/ob mice, standard diet, 60 days): progressive decrease in body weight gain | plasma insulin levels after 15 minute feeding ([2]; 18 h fasted ob/ob mice, 60 days, vs saline): not significantly different | plasma glucose responses to 15 minute feeding ([2]; 18 h fasted ob/ob mice, 60 days, 15, 30, 60 and 105 min): significantly lowered | decrease in body weight ([2]; ob/ob mice, 25 nmol/kg/day i.p., 60 days, vs saline, did not reach significance): ~17% | effect on food intake ([2]; ob/ob mice, 25 nmol/kg/day, 60 days, vs saline): no effect; also recorded: without changing food intake | cholesterol levels ([2]; ob/ob mice, 60 days, vs saline): unaltered | circulating triglyceride concentrations ([2]; ob/ob mice, 60 days, vs saline): significantly (P<0.05) reduced | enhanced insulin sensitivity ([2]; ob/ob mice, 60 days, vs saline): 1.5 fold | lowering of overall plasma glucose response to feeding ([2]; ob/ob mice, 60 days, vs saline): 1.7 fold | lowering of overall plasma glucose response to intraperitoneal glucose load ([2]; ob/ob mice, 60 days, vs saline): 1.9 fold | pancreatic insulin content ([2]; ob/ob mice, 60 days, vs saline): significantly (P<0.01) decreased | pancreatic weight ([2]; ob/ob mice, 60 days, vs saline): no effect | reduced pancreatic insulin content ([2]; ob/ob mice, 60 days, vs saline): 1.5 fold | levels of LDL-C ([2]; ob/ob mice, 60 days, vs saline, LDL-C calculated by Friedewald equation): significantly reduced | plasma glucose concentrations following intraperitoneal glucose ([2]; ob/ob mice, 60 days, 0, 15, 30 and 60 min after glucose 18 mmol/kg): significantly reduced | plasma insulin concentrations following intraperitoneal glucose ([2]; ob/ob mice, 60 days, 15 min after glucose 18 mmol/kg): significantly (P<0.05) reduced | hypoglycemic action of insulin (insulin sensitivity) ([2]; ob/ob mice, 60 days, insulin 50 U/kg i.p.): significantly (P<0.05) augmented | overall glycaemic excursion and insulinotropic response to glucose together with native GIP ([2]; ob/ob mice, 60 days, native GIP 25 nmoles/kg): significant decrease | glycated hemoglobin ([2]; ob/ob mice, after 60 days treatment): 4.1±0.1% | non-fasting plasma glucose ([2]; ob/ob mice, day 14 to day 60, vs saline): significantly reduced | non-fasting plasma insulin ([2]; ob/ob mice, day 44, vs saline): significantly lowered | Maximal insulin response (% GIP max) ([3]; BRIN-BD11 cells, 5.6 mm glucose, 20 min): 53 ± 5 % GIP max | Insulin response in presence of 10^-7 M GIP (% GIP max) ([3]; BRIN-BD11 cells, 5.6 mm glucose, in presence of 10^-7 M native GIP): 64 ± 2 % GIP max | effect on GIP-stimulated insulin secretion ([3]; in presence of GIP (10^-7 m)): significantly inhibited
